What was measured:
[1] = xn = mol fraction of the nth substance listed

COCCO [2-methoxyethan-1-ol] + O
surface tension liquid-gas [mN/m], [1]
Conditions | 298.15 K | 308.15 K | 318.15 K
x1 = 0.0509 | 56.33 | 55.17 | 53.9
x1 = 0.0559 | 55.11 | 54.04 | 52.82
x1 = 0.1052 | 46.86 | 45.88 | 44.8
x1 = 0.1494 | 43.31 | 42.37 | 41.35
x1 = 0.2215 | 39.7 | 38.81 | 37.83
x1 = 0.3373 | 36.75 | 35.89 | 34.92
x1 = 0.4783 | 35.02 | 34.18 | 33.22
x1 = 0.6258 | 32.91 | 32.02 | 31.13
x1 = 0.7814 | 31.78 | 30.96 | 30.02
x1 = 0.8912 | 31.02 | 30.21 | 29.28
x1 = 1 | 30.82 | 30.02 | 29.1

COCCOCCOCCO [2-[2-(2-methoxyethoxy)ethoxy]ethanol] + O
surface tension liquid-gas [mN/m], [1]
Conditions | x1 = 0.0564 | x1 = 0.0964 | x1 = 0.1673 | x1 = 0.3525 | x1 = 0.474 | x1 = 0.5536 | x1 = 0.6606 | x1 = 0.7512 | x1 = 0.8736 | x1 = 1
298.15 K | 54.62 | 47.43 | 41.73 | 40.45 | 39.1 | 37.76 | 37.13 | 36.91 | 36.69 | 36.28
308.15 K | 53.11 | 45.98 | 40.46 | 39.45 | 38.29 | 37.04 | 36.49 | 36.35 | 36.18 | 35.79
318.15 K | 51.53 | 44.95 | 39.01 | 38.12 | 37.42 | 36.12 | 35.85 | 35.46 | 35.29 | 35.21

COCCO [2-methoxyethan-1-ol]
Conditions | surface tension liquid-gas [mN/m]
298.15 K | 30.82
308.15 K | 30.02
318.15 K | 29.1

O [water]
Conditions | surface tension liquid-gas [mN/m]
298.15 K | 71.99
308.15 K | 70.38
318.15 K | 68.82

O [water] + COCCO
[1], x2 = 0
Conditions | surface tension liquid-gas [mN/m]
298.15 K | 71.99
308.15 K | 70.38
318.15 K | 68.82

O [water] + COCCOC
[1], x2 = 0
Conditions | surface tension liquid-gas [mN/m]
298.15 K | 71.99
308.15 K | 70.38
318.15 K | 68.82

COCCOCCO [2-(2-methoxyethoxy)ethanol]
Conditions | surface tension liquid-gas [mN/m]
298.15 K | 34.73
308.15 K | 33.91
318.15 K | 32.95

Reference: the NIST ThermoML archive (doi:10.1021/je030173e)
